The values below come from US9512126B2, “Substituted imidazopyridazines” (Bayer Intellectual Property GmbH, priority 2012, dated 2016).

The nature of the data set: In vitro metabolic stability in rat hepatocytes (including calculation of hepatic in vivo blood clearance). It is filed as in vitro ADME. The settings on record: Han Wistar, hepatocytes (freshly isolated, suspension), read-out: CL (hepatic in vivo blood clearance) (converted). The procedure:
Investigation of In Vitro Metabolic Stability in Rat Hepatocytes (Including Calculation of Hepatic In Vivo Blood Clearance (CL))
Hepatocytes from Han Wistar rats were isolated via a 2-step perfusion method. After perfusion, the liver was carefully removed from the rat: the liver capsule was opened and the hepatocytes were gently shaken out into a Petri dish with ice-cold WME. The resulting cell suspension was filtered through sterile gaze in 50 ml falcon tubes and centrifuged at 50×g for 3 min at room temperature. The cell pellet was resuspended in 30 ml WME and centrifuged through a Percoll® gradient for 2 times at 100×g. The hepatocytes were washed again with Williams' medium E (WME) and resuspended in medium containing 5% FCS. Cell viability was determined by trypan blue exclusion.
For the metabolic stability assay liver cells were distributed in WME containing 5% FCS to glass vials at a density of 1.0×10^6 vital cells/ml. The test compound was added to a final concentration of 1 μM. During incubation, the hepatocyte suspensions were continuously shaken and aliquots were taken at 2, 8, 16, 30, 45 and 90 min, to which equal volumes of cold methanol were immediately added.
Samples were frozen at −20° C. over night, after subsequently centrifuged for 15 minutes at 3000 rpm and the supernatant was analyzed with an Agilent 1200 HPLC-system with LCMS/MS detection.
The half-life of a test compound was determined from the concentration-time plot. From the half-life the intrinsic clearances were calculated. Together with the additional parameters liver blood flow, amount of liver cells in vivo and in vitro. The hepatic in vivo blood clearance (CL) and the maximal oral bioavailability (Fmax) was calculated. The following parameter values were used: Liver blood flow—4.2 L/h/kg rat; specific liver weight—32 g/kg rat body weight; liver cells in vivo—1.1×10^8 cells/g liver, liver cells in vitro—0.5×10^6 ml.
With `COc1ccc(C(=O)c2cc(NCCC(F)(F)F)c3ncc(-c4ccc(C(=O)NC5CC5)c(C)c4)n3n2)cc1` [Example 9, N-Cyclopropyl-4-{6-(4-methoxybenzoyl)-8-[(3,3,3-trifluoropropyl)amino]imidazo[1,2-b]pyridazin-3-yl}-2-methylbenzamide], the CLhep predicted at 1 μM is 20 mL/min/kg.

For the molecule `Cc1cc(-c2cnc3c(NCCC(F)(F)F)cc(C(O)c4cccc(F)c4O)nn23)ccc1C(=O)NC1CC1` (racemic) [Example 3, (RS)—N-Cyclopropyl-4-{6-[(3-fluoro-2-hydroxyphenyl)(hydroxy)methyl]-8-[(3,3,3-trifluoropropyl)amino]imidazo[1,2-b]pyridazin-3-yl}-2-methylbenzamide], the CLhep predicted at 1 μM was 56.7 mL/min/kg.

`COc1ccc(C(F)(F)c2cc(NCCC(F)(F)F)c3ncc(-c4ccc(C(=O)NC5CC5)c(C)c4)n3n2)cc1` [Example 16, N-Cyclopropyl-4-{6-[difluoro(4-methoxyphenyl)methyl]-8-[(3,3,3-trifluoropropyl)amino]imidazo[1,2-b]pyridazin-3-yl}-2-methylbenzamide]: the CLhep predicted at 1 μM was 31.7 mL/min/kg.

On to `COc1ccc(C(F)(F)c2cc(NCCC(F)(F)F)c3ncc(-c4ccc(C(=O)NC5CC5)c(C)c4)n3n2)cc1F` [Example 2, N-Cyclopropyl-4-{6-[difluoro(3-fluoro-4-methoxyphenyl)methyl]-8-[(3,3,3-trifluoropropyl)amino]imidazo[1,2-b]pyridazin-3-yl}-2-methylbenzamide], for which the CLhep predicted at 1 μM was 25 mL/min/kg.

Consider `C=C(c1cccc(F)c1)c1cc(NCCC(F)(F)F)c2ncc(-c3ccc(C(=O)NC4CC4)c(C)c3)n2n1` [Example 24, N-cyclopropyl-4-{6-[1-(3-fluorophenyl)ethenyl]-8-[(3,3,3-trifluoropropyl)amino]imidazo[1,2-b]pyridazin-3-yl}-2-methylbenzamide], for which the CLhep predicted at 1 μM was 36.7 mL/min/kg.

Turning to `COc1cccc(C(=O)c2cc(NCCC(F)(F)F)c3ncc(-c4ccc(C(=O)NC5CC5)c(C)c4)n3n2)c1` [Example 7, N-Cyclopropyl-4-{6-(3-methoxybenzoyl)-8-[(3,3,3-trifluoropropyl)amino]imidazo[1,2-b]pyridazin-3-yl}-2-methylbenzamide], the CLhep predicted at 1 μM was 51.7 mL/min/kg.

`Cc1cc(-c2cnc3c(NCCC(F)(F)F)cc(Cc4cccc(F)c4O)nn23)ccc1C(=O)NC1CC1` [Comparative Example 2, N-Cyclopropyl-4-{6-(3-fluoro-2-hydroxybenzyl)-8-[(3,3,3-trifluoropropyl)amino]imidazo[1,2-b]pyridazin-3-yl}-2-methylbenzamide, reference compound]: the CLhep predicted at 1 μM is 68.3 mL/min/kg.

For `COc1cccc(Cc2cc(NCCC(F)(F)F)c3ncc(-c4ccc(C(=O)NC5CC5)c(C)c4)n3n2)c1` [Comparative Example 4, N-cyclopropyl-4-{6-(3-methoxybenzyl)-8-[(3,3,3-trifluoropropyl)amino]imidazo[1,2-b]pyridazin-3-yl}-2-methylbenzamide, reference compound], the CLhep predicted at 1 μM was 56.7 mL/min/kg.

As to `C=C(c1cccc(OC)c1)c1cc(NCCC(F)(F)F)c2ncc(-c3ccc(C(=O)NC4CC4)c(C)c3)n2n1` [Example 8, N-Cyclopropyl-4-{6-[1-(3-methoxyphenyl)vinyl]-8-[(3,3,3-trifluoropropyl)amino]imidazo[1,2-b]pyridazin-3-yl}-2-methylbenzamide], the CLhep predicted at 1 μM was 30 mL/min/kg.

Consider `Cc1cc(-c2cnc3c(NCCC(F)(F)F)cc(C4(c5cccc(F)c5F)CC4)nn23)ccc1C(=O)NC1CC1` [Example 17, N-Cyclopropyl-4-{6-[1-(2,3-difluorophenyl)cyclopropyl]-8-[(3,3,3-trifluoropropyl)amino]imidazo[1,2-b]pyridazin-3-yl}-2-methylbenzamide], for which the CLhep predicted at 1 μM was 35 mL/min/kg.

`COc1ccc(Cc2cc(NCCC(F)(F)F)c3ncc(-c4ccc(C(=O)NC5CC5)c(C)c4)n3n2)cc1F` [Comparative Example 1, N-Cyclopropyl-4-{6-(3-fluoro-4-methoxybenzyl)-8-[(3,3,3-trifluoropropyl)amino]imidazo[1,2-b]pyridazin-3-yl}-2-methylbenzamide, reference compound]: the CLhep predicted at 1 μM was 50 mL/min/kg.

In the case of `Cc1cc(-c2cnc3c(NCCC(F)(F)F)cc(C(C)(O)c4cccc(F)c4O)nn23)ccc1C(=O)NC1CC1` (racemic) [Example 4, (RS)—N-Cyclopropyl-4-{6-[1-(3-fluoro-2-hydroxyphenyl)-1-hydroxyethyl]-8-[(3,3,3-trifluoropropyl)amino]imidazo[1,2-b]pyridazin-3-yl}-2-methylbenzamide], the CLhep predicted at 1 μM is 45 mL/min/kg.

In the case of `Cc1cc(-c2cnc3c(NCCC(F)(F)F)cc(C(=O)c4cc(F)ccc4F)nn23)ccc1C(=O)NC1CC1` [Example 12, N-Cyclopropyl-4-{6-(2,5-difluorobenzoyl)-8-[(3,3,3-trifluoropropyl)amino]imidazo[1,2-b]pyridazin-3-yl}-2-methylbenzamide], the CLhep predicted at 1 μM is 23.3 mL/min/kg.

For `Cc1cc(-c2cnc3c(NCCC(F)(F)F)cc(C(O)c4cc(F)ccc4F)nn23)ccc1C(=O)NC1CC1` (racemic) [Example 11, (RS)—N-Cyclopropyl-4-{6-[(2,5-difluorophenyl)(hydroxy)methyl]-8-[(3,3,3-trifluoropropyl)amino]imidazo[1,2-b]pyridazin-3-yl}-2-methylbenzamide], the CLhep predicted at 1 μM was 38.3 mL/min/kg.

`Cc1cc(-c2cnc3c(NCCC(F)(F)F)cc(C4(c5cc(F)ccc5O)CC4)nn23)ccc1C(=O)NC1CC1` [Example 23, N-cyclopropyl-4-{6-[1-(5-fluoro-2-hydroxyphenyl)cyclopropyl]-8-[(3,3,3-trifluoropropyl)amino]imidazo[1,2-b]pyridazin-3-yl}-2-methylbenzamide]: the CLhep predicted at 1 μM was 41.7 mL/min/kg.

Regarding `C=C(c1ccc(OC)cc1)c1cc(NCCC(F)(F)F)c2ncc(-c3ccc(C(=O)NC4CC4)c(C)c3)n2n1` [Example 10, N-Cyclopropyl-4-{6-[1-(4-methoxyphenyl)vinyl]-8-[(3,3,3-trifluoropropyl)amino]imidazo[1,2-b]pyridazin-3-yl}-2-methylbenzamide], the CLhep predicted at 1 μM was 36.7 mL/min/kg.

On to `Cc1cc(-c2cnc3c(NCCC(F)(F)F)cc(Cc4cccc(F)c4)nn23)ccc1C(=O)NC1CC1` [Comparative Example 3, N-Cyclopropyl-4-{6-(3-fluorobenzyl)-8-[(3,3,3-trifluoropropyl)amino]imidazo[1,2-b]pyridazin-3-yl}-2-methylbenzamide, reference compound], for which the CLhep predicted at 1 μM is 40 mL/min/kg.

In the case of `Cc1cc(-c2cnc3c(NCCC(F)(F)F)cc(C(F)(F)c4cccc(F)c4F)nn23)ccc1C(=O)NC1CC1` [Example 18, N-Cyclopropyl-4-{6-[(2,3-difluorophenyl)(difluoro)methyl]-8-[(3,3,3-trifluoropropyl)amino]imidazo[1,2-b]pyridazin-3-yl}-2-methylbenzamide], the CLhep predicted at 1 μM was 16.7 mL/min/kg.

For `Cc1cc(-c2cnc3c(NCCC(F)(F)F)cc(C4(c5cccc(F)c5)CC4)nn23)ccc1C(=O)NC1CC1` [Example 25, N-cyclopropyl-4-{6-[1-(3-fluorophenyl)cyclopropyl]-8-[(3,3,3-trifluoropropyl)amino]imidazo[1,2-b]pyridazin-3-yl}-2-methylbenzamide], the CLhep predicted at 1 μM is 33.3 mL/min/kg.

For the molecule `Cc1cc(-c2cnc3c(NCCC(F)(F)F)cc(C(F)c4cccc(F)c4)nn23)ccc1C(=O)NC1CC1` (racemic) [Example 5, (RS)—N-Cyclopropyl-4-{6-[fluoro(3-fluorophenyl)methyl]-8-[(3,3,3-trifluoropropyl)amino]imidazo[1,2-b]pyridazin-3-yl}-2-methylbenzamide], the CLhep predicted at 1 μM was 35 mL/min/kg.

Take `C=C(c1cc(NCCC(F)(F)F)c2ncc(-c3ccc(C(=O)NC4CC4)c(C)c3)n2n1)c1cc(F)ccc1O` [Example 22, N-cyclopropyl-4-{6-[1-(5-fluoro-2-hydroxyphenyl)ethenyl]-8-[(3,3,3-trifluoropropyl)amino]imidazo[1,2-b]pyridazin-3-yl}-2-methylbenzamide]: the CLhep predicted at 1 μM is 50 mL/min/kg.

For `COc1ccc(C(=O)c2cc(NCCC(F)(F)F)c3ncc(-c4ccc(C(=O)NC5CC5)c(C)c4)n3n2)cc1F` [Example 13, N-Cyclopropyl-4-{6-(3-fluoro-4-methoxybenzoyl)-8-[(3,3,3-trifluoropropyl)amino]imidazo[1,2-b]pyridazin-3-yl}-2-methylbenzamide], the CLhep predicted at 1 μM was 18.3 mL/min/kg.

`C=C(c1ccc(OC)c(F)c1)c1cc(NCCC(F)(F)F)c2ncc(-c3ccc(C(=O)NC4CC4)c(C)c3)n2n1` [Example 1, N-Cyclopropyl-4-{6-[1-(3-fluoro-4-methoxyphenyl)ethenyl]-8-[(3,3,3-trifluoropropyl)amino]imidazo[1,2-b]pyridazin-3-yl}-2-methylbenzamide]: the CLhep predicted at 1 μM was 43.3 mL/min/kg.

`C=C(c1cc(NCCC(F)(F)F)c2ncc(-c3ccc(C(=O)NC4CC4)c(C)c3)n2n1)c1cccc(F)c1F` [Example 15, N-Cyclopropyl-4-{6-[1-(2,3-difluorophenyl)vinyl]-8-[(3,3,3-trifluoropropyl)amino]imidazo[1,2-b]pyridazin-3-yl}-2-methylbenzamide]: the CLhep predicted at 1 μM was 33.3 mL/min/kg.
